According to the supplement of paper PMC10307832:

Key:
[1] = compound: O=C(O)C(Cc1ccccc1[N+](=O)[O-])=NNc1nc(-c2ccc(Cl)c(Cl)c2)cs1 (mixture of isomers) [4EGI-1] + COc1cc2c(Oc3ccc(NC(=O)C4(C(=O)Nc5ccc(F)cc5)CC4)cc3F)ccnc2cc1OCCCN1CCOCC1 [Foretinib] (partner 0.25 µM); test: relative viability (nuclei count vs DMSO), 5 days (fraction); higher = more cells survive
Summary of the method: (§1)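 Cells from lung cancer lines were seeded into 1536-well plates and, one day later, dosed by pin tool. Treatments were either a single drug or a fixed dose of an anchor drug with five library-drug doses (not always all listed) in √10 steps. After 5 days, nuclei were stained in a one-step fixation (final 0.05% Triton X-100, 1% formaldehyde, 1 ug/ml Hoechst) and counted on 4× images, and relative viability is the treated-to-vehicle nuclei ratio, as the median of duplicate plates.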

[2] = compound: CN1CCN(CC1)C2=CC(=C(C=C2)NC3=NC=C4C(=N3)N(C5=CC=CC=C5C(=O)N4C)C)OC [XMD8-85] + CC1(C)CCC(c2ccc(Cl)cc2)=C(CN2CCN(c3ccc(C(=O)NS(=O)(=O)c4ccc(N[C@H](CCN5CCOCC5)CSc5ccccc5)c(S(=O)(=O)C(F)(F)F)c4)cc3)CC2)C1 [Navitoclax] (partner 0.5 µM); test: as above
Summary of the method: as §1

| Cell Line | relative viability ([1]; first compound 0.5 µM) | relative viability ([1]; first compound 1.581 µM) | relative viability ([1]; first compound 5 µM) | relative viability ([1]; first compound 15.81 µM) | relative viability ([1]; first compound 50 µM) | relative viability ([2]; first compound 0.08 µM) | relative viability ([2]; first compound 0.253 µM) | relative viability ([2]; first compound 0.8 µM) | relative viability ([2]; first compound 2.53 µM) | relative viability ([2]; first compound 8 µM) |
| --- | --- | --- | --- | --- | --- | --- | --- | --- | --- | --- |
| BEN | 0.694 | 0.474 | 0.781 | 0.753 | 0.524 | 0.0618 | 0.0742 | 0.437 | 0.0692 | 0.0637 |
| SK-MES-1 | 1.04 | 0.955 | 1.03 | 0.521 | 0.824 | 1.22 | 1.33 | 1.06 | 1.19 | 0.866 |
| NCI-H1623 | 0.889 | 0.608 | 0.941 | 0.584 | 0.707 |  |  |  |  |  |
| IA-LM | 1.25 | 1.04 | 0.966 | 0.663 | 0.0865 | 0.75 |  | 0.763 | 0.641 | 0.185 |
| CAL-12T | 1.11 | 0.857 | 1.08 | 1.07 | 0.589 | 1.18 | 1.11 | 1.1 | 1.06 | 0.759 |
| ABC-1 | 1.21 | 0.896 | 1.17 | 0.587 | 0.271 |  |  |  |  |  |
| LCLC-97TM1 | 0.926 | 0.725 | 0.941 | 0.936 | 0.127 | 0.299 | 0.474 | 0.442 | 0.329 | 0.796 |
| PC-14 | 1.01 | 0.799 | 1.09 |  | 0.879 | 1.01 | 1.02 | 1.03 | 0.959 | 0.628 |
| NCI-H23 | 1.04 |  | 1.1 | 0.933 | 0.638 | 0.878 | 1.22 | 0.686 | 0.657 | 0.544 |
| NCI-H727 | 1.07 | 1.07 | 0.767 | 1.19 | 0.324 | 0.466 | 0.365 |  | 0.379 | 0.247 |
| A549 | 1.01 | 0.771 | 0.996 | 0.883 | 0.697 | 1.33 | 1.24 | 1.28 | 1.19 | 0.933 |
| COR-L 105 | 0.983 | 0.172 | 0.993 | 0.863 | 0.728 | 0.83 | 0.819 | 0.738 | 0.563 | 0.337 |
| NCI-H650 | 1.13 |  | 1 | 0.958 | 0.897 |  |  |  |  |  |
| NCI-H1975 | 0.932 | 0.814 | 1.01 | 0.844 | 0.729 | 1.25 | 1.12 | 1.09 | 1.09 | 0.532 |
| NCI-H2023 | 0.88 |  | 0.772 | 0.45 | 0.149 | 0.924 | 1.08 | 1.13 | 0.997 |  |
| EMC-BAC-2 | 1.2 | 0.907 | 1.04 | 0.936 | 0.984 | 1.12 | 1.23 | 1.16 | 1.13 | 1.16 |
| LK-2 | 1.23 |  | 1.36 | 1.42 | 0.929 | 0.74 | 0.915 | 0.883 | 0.772 | 0.699 |
| EPLC-272H | 0.721 |  | 0.735 | 1.26 | 0.132 |  | 1.3 | 1.08 | 1.05 | 0.679 |

| Cell Line | relative viability ([1]; first compound 0.5 µM) | relative viability ([1]; first compound 1.581 µM) | relative viability ([1]; first compound 5 µM) | relative viability ([1]; first compound 15.81 µM) | relative viability ([1]; first compound 50 µM) | relative viability ([2]; first compound 0.08 µM) | relative viability ([2]; first compound 0.253 µM) | relative viability ([2]; first compound 0.8 µM) | relative viability ([2]; first compound 2.53 µM) | relative viability ([2]; first compound 8 µM) |
| --- | --- | --- | --- | --- | --- | --- | --- | --- | --- | --- |
| HCC-366 | 0.972 | 0.701 | 0.905 | 0.985 | 0.308 | 1.12 | 1.06 | 1.27 | 1.06 | 0.63 |
| NCI-H1793 | 0.645 | 0.948 | 0.686 | 0.443 | 0.33 | 0.334 | 0.348 | 0.962 | 1.27 | 0.351 |
| NCI-H3122 | 0.897 | 0.897 | 0.927 | 0.986 | 0.684 | 1.08 | 1.01 | 1.09 | 1.06 | 1.1 |
| NCI-H596 | 0.856 | 0.644 | 0.796 | 0.757 | 0.75 | 1.04 | 1.13 | 1.07 | 0.68 | 0.377 |
| NCI-H2087 | 1.23 | 1.09 | 1.39 | 0.855 | 0.29 | 1.06 | 1.01 | 1.17 | 1.05 | 0.772 |
| NCI-H2342 | 1.15 | 1.06 | 1.2 | 1.05 | 0.831 |  |  |  |  |  |
| NCI-H1563 | 0.915 | 0.853 | 0.962 | 0.789 | 0.557 |  |  |  |  |  |
| NCI-H1395 | 1.15 | 0.86 | 1.04 | 0.986 | 0.589 | 1.09 | 1.18 | 1.3 | 1.03 | 1.02 |
| NCI-H460 | 1.02 |  | 0.997 | 0.686 | 0.228 | 1.07 | 1.21 | 1.14 | 1.22 | 0.415 |
| NCI-H2228 | 0.906 | 0.878 | 0.938 | 0.882 | 0.166 | 0.893 | 0.929 | 0.619 | 0.81 | 0.353 |
| HOP-62 | 1.17 | 0.716 | 1.1 | 1.17 | 0.656 | 0.996 | 1.08 | 0.939 | 0.992 | 0.79 |
| LC-2-ad | 0.997 |  | 1.02 | 0.485 | 0.283 | 0.512 | 0.364 |  | 0.574 | 0.328 |
| EKVX | 1.08 | 0.121 | 0.925 | 0.686 | 0.815 | 0.931 | 0.999 | 0.89 | 1.03 | 0.892 |
| LCLC-103H | 0.791 | 0.675 | 0.764 | 0.733 | 0.367 |  |  |  |  |  |
| NCI-H1651 | 0.893 | 0.608 | 0.818 | 0.729 | 0.784 | 1.09 | 1 | 1.13 | 0.976 | 0.849 |
| SK-LU-1 | 0.956 | 0.829 | 0.841 | 0.746 | 0.284 | 0.839 | 0.795 | 1.1 | 0.888 | 0.293 |
| NCI-H2405 | 1.06 | 1 | 1.13 | 1.13 | 1.02 | 0.877 | 1.09 | 1.08 | 0.662 | 0.427 |
| Calu-6 | 0.933 | 0.717 | 0.919 | 0.912 | 0.659 | 0.93 | 0.953 | 0.911 | 1.02 | 0.668 |
